Laboratory results from patent publication US20170035708A1, “USE OF N-(4-TERT-BUTYLBENZYL)-3-CHLORO-N-[2-(4-CHLORO-3-ETHYL-PHENYL)-ETHYL]-2-FLUORO-5-TRIFLUOROMETHYL-BENZAMIDE FOR THE TREATMENT OF EYE DISEASES” (Hoffmann-La Roche Inc., priority 2013, published 2017).

System: Human umbilical vein endothelial cells (HUVEC)
Assay: alamarBlue viability assay in HUVECs
Format: cell-based
Settings: 72 h
Method: Human umbilical vein endothelial cells (HUVEC), the growth medium EGM and the basal medium EBM was obtained from Lonza. Additional FCS for the starving medium was used form Invitrogen.
The viability assay with alamarBlue® from Invitrogen was done in 96 well gelatin coated plates from BD.
The tested compounds were dissolved in DMSO at a stock concentration of 10 mM.
VEGF-A165 was obtained from R&D Systems® and has been dissolved at a stock concentration of 100 ug/ml in PBS.
HUVECs cells were maintained in Endothial growth medium (EGM) until Passage 5. For the viability assay HUVECs have been seeded in EBM with 0.5% FCS on gelatin coated 96 well plates at a cell density of 11.000 cells/well. Outer wells were left free and have been filled with medium afterwards. Cells were incubated overnight in a cell culture incubator at 37° C. with 5% CO2. Compounds and VEGF have been diluted in EBM/0.5% FCS to a 20× working concentration. 5 ul of the 20× pre-dilution have been added to the cells. HUVECs which have to be intended to grow under hypoxia conditions have been transferred to a cell culture incubator with 1% O2, 5% CO2 and 37° C. HUVECs grown under normoxia conditions were incubated in a normal cell culture incubator. After 72 h, 11 ul of alamarBlue® have been added to each well of the cells subsequently incubated for 4 h in the cell culture incubator. The absorbance has been detected at 570 nm with a reference wavelength of 600 nm.

Row | Compound | alamarBlue assay OD 570 nm-600 nm (4.1 nM, hypoxia) | alamarBlue assay OD 570 nm-600 nm (4.1 nM, normoxia) | alamarBlue assay OD 570 nm-600 nm (10.2 nM, hypoxia) | alamarBlue assay OD 570 nm-600 nm (10.2 nM, normoxia) | alamarBlue assay OD 570 nm-600 nm (25.6 nM, hypoxia) | alamarBlue assay OD 570 nm-600 nm (25.6 nM, normoxia) | alamarBlue assay OD 570 nm-600 nm (64 nM, hypoxia) | alamarBlue assay OD 570 nm-600 nm (64 nM, normoxia) | alamarBlue assay OD 570 nm-600 nm (160 nM, hypoxia) | alamarBlue assay OD 570 nm-600 nm (160 nM, normoxia) | alamarBlue assay OD 570 nm-600 nm (400 nM, hypoxia) | alamarBlue assay OD 570 nm-600 nm (400 nM, normoxia) | alamarBlue assay OD 570 nm-600 nm (1000 nM, hypoxia) | alamarBlue assay OD 570 nm-600 nm (1000 nM, normoxia) | alamarBlue assay OD 570 nm-600 nm (2500 nM, hypoxia) | alamarBlue assay OD 570 nm-600 nm (2500 nM, normoxia) | effect on viability of HUVECs (hypoxia) | effect on viability of HUVECs (normoxia) | other results
1 | COc1cc(F)c(C(C)C)cc1-c1ccc(C(F)(F)F)cc1CN1C(=O)O[C@H](c2cc(C(F)(F)F)cc(C(F)(F)F)c2)[C@@H]1C [Anacetrapib, (4S,5R)-5-[3,5-bis(trifluoromethyl)phenyl]-3-({2-[4-fluoro-2-methoxy-5-(propan-2-yl)phenyl]-5-(trifluoromethyl)phenyl}methyl)-4-methyl-1,3-oxazolidin-2-one] | 0.0003 | 0.0096 | 0.0065 | 0.0170 | 0.0014 | 0.0203 | 0.0093 | 0.0119 | −0.0022 | 0.0168 | 0.0260 | 0.0352 | 0.0565 | 0.0662 | 0.0814 | 0.0846 | positive effect on viability, albeit with lower efficacy | positive effect of viability | –
2 | Cc1cc(C)c2c(c1)[C@@H](N(Cc1cc(C(F)(F)F)cc(C(F)(F)F)c1)c1nnn(C)n1)CCCN2C[C@H]1CC[C@H](C(=O)O)CC1 [Evacetrapib, Trans-4-({(5S)-5-[{[3,5-bis(trifluoromethyl)phenyl]methyl}(2-methyl-2H-tetrazol-5-yl)amino]-7,9-dimethyl-2,3,4,5-tetrahydro-1H-benzazepin-1-yl}methyl) cydohexanecarboxylic acid] | 0.0141 | 0.0032 | 0.0129 | 0.0158 | 0.0131 | 0.0164 | 0.0076 | 0.0051 | 0.0168 | 0.0227 | 0.0403 | 0.0103 | 0.0564 | 0.0191 | −0.1084 | −0.0107 | negative effect on the cell viability | no influence of viability could be detected | –
3 | CCOC(=O)N1c2ccc(C(F)(F)F)cc2[C@@H](N(Cc2cc(C(F)(F)F)cc(C(F)(F)F)c2)C(=O)OC)C[C@H]1CC [Torcetrapib, [2R, 4S] 4-[(3,5-bis-trifluoromethyl-benzyl)-methoxycarbonyl-amino]-2-ethyl-6-trifluoromethyl-3,4-dihydro-2H-quinoline-1-carboxylic acid ethyl ester] | 0.0129 | 0.0020 | 0.0200 | −0.0004 | 0.0118 | 0.0160 | 0.0111 | 0.0007 | 0.0137 | 0.0194 | 0.0308 | 0.0152 | −0.0388 | 0.0001 | −0.0784 | 0.0138 | negative effect on the cell viability | no influence of viability could be detected | –
4 | VEGF | – | – | – | – | – | – | – | – | – | – | – | – | – | – | – | – | – | – | viability measured at 570 nm (alamarBlue) (VEGF 1.2 ng/ml, hypoxia): 0.0480; viability measured at 570 nm (alamarBlue) (VEGF 1.2 ng/ml, normoxia): 0.0268; viability measured at 570 nm (alamarBlue) (VEGF 2.3 ng/ml, hypoxia): 0.0679; viability measured at 570 nm (alamarBlue) (VEGF 2.3 ng/ml, normoxia): 0.0394; viability measured at 570 nm (alamarBlue) (VEGF 4.7 ng/ml, hypoxia): 0.0983; viability measured at 570 nm (alamarBlue) (VEGF 4.7 ng/ml, normoxia): 0.0582; viability measured at 570 nm (alamarBlue) (VEGF 9.4 ng/ml, hypoxia): 0.1114; viability measured at 570 nm (alamarBlue) (VEGF 9.4 ng/ml, normoxia): 0.0908; viability measured at 570 nm (alamarBlue) (VEGF 18.8 ng/ml, hypoxia): 0.1039; viability measured at 570 nm (alamarBlue) (VEGF 18.8 ng/ml, normoxia): 0.1265; viability measured at 570 nm (alamarBlue) (VEGF 37.5 ng/ml, hypoxia): 0.0927; viability measured at 570 nm (alamarBlue) (VEGF 37.5 ng/ml, normoxia): 0.1449; viability measured at 570 nm (alamarBlue) (VEGF 75 ng/ml, hypoxia): 0.0906; viability measured at 570 nm (alamarBlue) (VEGF 75 ng/ml, normoxia): 0.1642; viability measured at 570 nm (alamarBlue) (VEGF 150 ng/ml, hypoxia): 0.0825; viability measured at 570 nm (alamarBlue) (VEGF 150 ng/ml, normoxia): 0.1618; survival signal in HUVECs in response to VEGF-A165 (normoxia and hypoxia): dose dependent survival signal
